Experimental data reported in patent US5945400A, “Nucleic acid-containing composition, preparation and use thereof” (Rhone-Poulenc Rorer SA, priority 1995, dated 1999).
In brackets after ≈: the same amount, converted by molar mass. No end group written: not given here.

What was measured:
NIH 3T3 cells = test: in vitro transfer of nucleic acid into NIH 3T3 cells with DOGS (luciferase activity); type: cell-based; conditions: 0.25 μg compound
Description: (§1) 1. A mixture of 10 μl composed of the following is prepared:
0.5 μg of pCMV-luc plasma DNA, 0.25 μg of a compound according to the invention, in a buffer solution as identified,
40 mM dioctadecylamidoglycylspermine (DOGS) in charge ratios X as indicated in each of the tests. 2. 5·10^4 cells from the NIH3T3 lines are incubated with the above mixture at 37° C., under an atmosphere of 5% CO2 for 4 hours. The cells are then washed and recultured for 48 hours in a medium containing 10% serum (DMEM 10% SVF).
The cell carpet is then lysed in 50 μl of lysis buffer (Promega), recovered and then centrifuged at 20,000 g for 5 minutes.
The luciferase activity is measured on 4 μl of supernatant by adding 20 μl of substrate (Promega). The reading is taken on a LKB luminometer, cumulating the RLUs (relative light units) over 20 seconds.
3. Compaction in 150 mM NaCl, 10 mM HEPES* (* N-(2-hydroxyethyl)piperazine-N'-(2-ethanesulphonic acid) at pH 7.1
4. Compaction in 5% D-glucose, 150 mM NaCl, with 10 mM HEPES (pH of the compaction solution: 7.2)

NIH3T3 cells [1] = test: Variation of compound/DNA ratio in the presence of DOGS, luciferase activity; type: cell-based; conditions: PEP/DNA w/v 0 (no peptide); DOGS charge ratio 1.8x; 0.75 μg DNA
Description: as §1
0.75 μg of pCMV-luc plasma DNA and a compound according to the invention in the ratio indicated, in 5% D-glucose, 150 mM NaCl buffer solution, with 10 mM HEPES (pH of the compaction solution: 7.2),
40 mM dioctadecylamidoglycylspermine (DOGS) in a charge ratio of 1.8×.
(§2) 2. 4·10^5 cells from NIH3T3 lines are incubated with the above mixture at 37° C., under an atmosphere of 5% CO2 for 4 hours. The cells are then washed and recultured for 48 hours in a medium containing 10% serum (DMEM 10% SVF). The cell carpet is then lysed, 45 hours after the transfection, in 100 μl of lysis buffer (Promega), recovered and then centrifuged at 20,000 g for 5 minutes. The luciferase activity is measured on 5 μl of the supernatant, adding 25 μl of substrate (Promega). The reading is taken on an LKB luminometer, cumulating the RLUs (relative light units) over 20 seconds.

[2] = system: tumours of type 3LL (Lewis Lung carcinoma); test: In vivo transfer into tumour cells (3LL tumours), luciferase activity; parameters: species or system mice; conditions: no peptide
Description: The corresponding tests are carried out on adult (>8 weeks) female C57/BL mice carrying tumours of type 3LL (Lewis Lung carcinoma) obtained by passing fragments of tumour from animal to animal, implanted under the skin of the flank.
As regards the solutions injected, they are prepared as follows: the DNA is first dissolved in the buffer, the peptide is then optionally added and, after 20 minutes, a solution of cationic lipids at high concentration (20 or 40 mM) is added to the mixture. After addition of all these products, the mixture contains, besides the DNA, the peptide and the cationic lipid, 150 mM NaCl, 5% D-glucose and 5 mM MES pH 6.2. In the case of the last two series with lipopolyamine C (RPR 120 535), the injection vehicle is 75 mM NaCl and 150 mM NaCl, 5% D-glucose respectively. The injection is made 20 to 30 minutes after the solution has been prepared.
Each transfecting composition (see Tables 9 and 10 for their respective specificities) is injected into the tumour 7 days after implantation, the mouse being anaesthetized with a ketamine 130 mg/kg+xylazine (4 mg/kg) mixture.
Two days after the injection, the tumour tissue is removed, weighed and then chopped up and ground in 500 μl of lysis buffer (Promega cell lysis buffer E153 A). After centrifugation (20,000 g for 10 minutes), 10 μl are taken and used to evaluate the luciferase activity by measuring the total light emission obtained after mixing with 50 μl of reagent (Promega luciferase assay substrate) in a Lumat LB 9501 luminometer (Berthold), with integration over 10 seconds.
The resulting activity is expressed as RLUs (relative light units) estimated in the entire tumour lysis supernatant, or as RLU per μg of DNA injected.

3LL cells = test: In vitro transfer of nucleic acid into 3LL cells, luciferase activity; type: cell-based; conditions: 0.5 μg DNA, 0.5 μg peptide, 75 mM NaCl
Description: A mixture of 10 μl composed of the following is prepared: 0.5 μg of pCMV-luc plasmid DNA, 0.5 μg of PR1 or PR2 a compound according to the invention, in a solution of 75 mM NaCl final lipopolyamine C (RPR 120535) in charge ratios as indicated in each of the tests listed in Table 11 below. 1×10^5 3LL cells (in 250 μl of DMEM culture medium with 10% foetal calf serum) are incubated with the above mixture at 37° C. under a 5% CO2 atmosphere for 4 hours. 500 μl of culture medium are added and the cells are recultured. The following day, the cells are washed and recultured for 24 hours in the same medium containing 10% foetal calf serum. The cell carpet is then lysed in 100 μl of lysis buffer (Promega). The luciferase activity is measured by adding 50 μl of substrate (Promega). The reading is taken on an LB luminometer by cumulating the RLUs (relative light nits) over 10 seconds.

NIH3T3 cells [3] = test: Variation of compound/DNA ratio in the presence of lipopolyamine A, luciferase activity; type: cell-based; conditions: Compound/DNA ratio 0
Description: as §1
0.55 μg of pCNV-luc plasma DNA and a compound according to the invention, in the ratio indicated, in 150 mM NaCl buffer solution,
1,3-bis (3-aminopropylamino) -2-propyl (dioctadecyl-carbamoylmethoxy)acetate in the charge ratios indicated.
as §2, with “2. 5·10^4” for “2. 4·10^5”, “on 10” for “on 5”, “adding 50” for “adding 25”, “on a Berthold lumat 9501®” for “on an LKB”, “over 10” for “over 20”

physchem = type: physicochemical
Description: This oligopeptide was synthesized in the form of the trifluoroacetic acid salt using an Applied Biosystem 431A peptide synthesizer, on an HMP resin (Applied Biosystem) and according to an FMOC strategy. After the synthesis, the peptide was released from the resin by treatment for 90 minutes in the presence of 1/19 water/TFA solution. After filtration, the solution is concentrated on a rotary evaporator and the peptide is then precipitated twice, by addition of tert-butyl methyl ether, from a solution in TFA. The final pellet is washed with tert-butyl methyl ether and then dried. The peptide is dissolved in 5 ml of water, filtered and purified by reverse-phase HPLC on a C18 100 A column (Biorad RSL). The peptide is purified by with the aid of a gradient of 0 to 25% of acetonitrile, 0.07% TFA in water 0.07% TFA. The purity of the peptide obtained is greater than 95% and its solubility in water is 100 mg/ml.
This oligopeptide was synthesized in the form of the trifluoroacetic acid salt according to the procedure described above, using 2/40/3/1/2 (v/v) water/TFA/phenol/ethanedithiol/thioanisole solution for the cleavage. The purity of the peptide obtained is greater than 95% and its solubility in water is 100 mg/ml at pH 2.1.
These oligopeptides are synthesized in the form of the trifluoroacetic acid salts according to the procedure described above. To do this, the resin is divided into two batches. A first batch intended for the synthesis of H is treated for the cleavage with 40/3/1/2/2 (v/v) TFA/phenol/ethanedithiol/thioanisole/water solution. The purity of the peptide obtained is greater than 90% and its solubility in water is 10 mg/ml at pH 2.1. The synthesis is continued on the second batch of resin so as to obtain nls-βAla-H. The cleavage solution used is identical to the previous one. The purity of the peptide obtained is greater than 95% and its solubility in water is 10 mg/ml at pH 2.1.

With `CCCCCCCCCCCCCCCCCCN(CCCCCCCCCCCCCCCCCC)C(=O)CNC(=O)C(CCCNCCCN)NCCCN` (stereo not shown) [DOGS, dioctadecylamidoglycylspermine] the luciferase activity (NIH 3T3 cells; Table 1, DOGS/DNA charge ratio 0.8x, compaction in 150 mM NaCl, 10 mM HEPES pH 7.1, 0.5 μg pCMV-luc) was 32 R.L.U, the luciferase activity (NIH 3T3 cells; Table 1, DOGS/DNA charge ratio 1.8x, 150 mM NaCl, 10 mM HEPES pH 7.1, 0.5 μg pCMV-luc) was 220 R.L.U and the luciferase activity (NIH 3T3 cells; Table 1, DOGS/DNA charge ratio 3x, 150 mM NaCl, 10 mM HEPES pH 7.1, 0.5 μg pCMV-luc) was 5400 R.L.U. For the same compound, the luciferase activity (NIH 3T3 cells; Table 2, DOGS/DNA charge ratio 0.8x, 5% D-glucose, 150 mM NaCl, 10 mM HEPES pH 7.2, 0.5 μg DNA) was 880 R.L.U, the luciferase activity (NIH 3T3 cells; Table 2, DOGS/DNA charge ratio 1.8x, 5% D-glucose, 150 mM NaCl, 10 mM HEPES pH 7.2, 0.5 μg DNA) was 6600 R.L.U and the luciferase activity (NIH 3T3 cells; Table 2, DOGS/DNA charge ratio 3x, 5% D-glucose, 150 mM NaCl, 10 mM HEPES pH 7.2, 0.5 μg DNA) was 22000 R.L.U. For the same compound, the luciferase activity (NIH3T3 cells [1]) was 2150 RLU.
With `CCCCCCCCCCCCCCCCCCN(CCCCCCCCCCCCCCCCCC)C(=O)CNC(=O)CNCCCNCCCCNCCCN` [Lipopolyamine C, H2 N(CH2)3 NH(CH2)4 NH(CH2)3 NHCH2 COGlyN[(CH2)18]2] the “Result, RLU/tumour average” value ([2]; 18.75 μg DNA/tumour, 0.25 μg/μl, cationic lipid C 2 nmol/μg DNA, vehicle 75 mM NaCl) was 222 700 RLU/tumour, the “Result, RLU/tumour average” value ([2]; 20 μg DNA/tumour, 0.5 μg/μl, cationic lipid C 4 nmol/μg DNA, vehicle 150 mM NaCl, 5% D-glucose) was 806 467 RLU/tumour and the luciferase activity (3LL cells; Table 11, Lipopolyamine C/DNA charge ratio 4x) was 107 289 RLU. For the same compound, the luciferase activity (3LL cells; Table 11, Lipopolyamine C/DNA charge ratio 6x) was 77 396 RLU, the luciferase activity (3LL cells; Table 11, Lipopolyamine C/DNA charge ratio 8x) was 14 512 RLU and the luciferase activity (3LL cells; Table 12, Lipopolyamine C/DNA charge ratio 4x) was 12 037 RLU. It also gave a luciferase activity (3LL cells; Table 12, Lipopolyamine C/DNA charge ratio 6x) of 901 RLU and a luciferase activity (3LL cells; Table 12, Lipopolyamine C/DNA charge ratio 8x) of 328 RLU.
With `CCCCCCCCCCCCCCCCCCN(CCCCCCCCCCCCCCCCCC)C(=O)COCC(=O)OC(CNCCCN)CNCCCN` [lipopolyamine A, d,1-3-bis(3-aminopropylamino)-2-propyl (dioctadecyl-carbamoylmethoxy)acetate] the “Result, RLU/tumour average” value ([2]; 7.5 μg DNA/tumour, 0.5 μg/μl, cationic lipid A 3 nmol/μg DNA) was 88 712 RLU/tumour, the “Result, RLU/tumour average” value ([2]; 20 μg DNA/tumour, 2 μg/μl, cationic lipid A 1.8 nmol/μg DNA) was 142 300 RLU/tumour and the “Result, RLU/tumour average” value ([2]; 30 μg DNA/tumour, 2 μg/μl, cationic lipid A 3 nmol/μg DNA) was 99 775 RLU/tumour. The luciferase activity (NIH3T3 cells [3]; lipopolyamine A 3x) was 8.9 10^6 RLU, the luciferase activity (NIH3T3 cells [3]; lipopolyamine A 6x) was 6.2 10^6 RLU and the luciferase activity (NIH3T3 cells [3]; lipopolyamine A NH2/DNA phosphates 1.8x) was 3.9 10^6 RLU.
Work on `CC(C)[C@H](NC(=O)[C@H](CCCCN)NC(=O)[C@H](CCCNC(=N)N)NC(=O)[C@H](CCCCN)NC(=O)[C@H](CCCCN)NC(=O)[C@H](CCCCN)NC(=O)[C@@H]1CCCN1)C(=O)O` [nls, ProLysLysLysArgLysVal] yielded a solubility (physchem; pH 2.1, water) of 100 mg/mL (≈ 113 mM).
`CC(C)[C@H](NC(=O)[C@H](CCCCN)NC(=O)[C@H](CCCNC(=N)N)NC(=O)[C@H](CCCCN)NC(=O)[C@H](CCCCN)NC(=O)[C@H](CCCCN)NC(=O)[C@@H]1CCCN1)C(=O)NCCC(=O)N[C@@H](CCCCN)C(=O)N[C@H](C(=O)N1CCC[C@H]1C(=O)N[C@@H](CCCCN)C(=O)N[C@@H](CCCCN)C(=O)N[C@@H](C)C(=O)N[C@@H](CCCCN)C(=O)N[C@@H](CCCCN)C(=O)N1CCC[C@H]1C(=O)N[C@@H](CCCCN)C(=O)N[C@H](C(=O)N1CCC[C@H]1C(=O)N[C@@H](CCCCN)C(=O)N[C@@H](CCCCN)C(=O)N[C@@H](C)C(=O)N[C@@H](CCCCN)C(=O)N[C@@H](CCCCN)C(=O)N1CCC[C@H]1C(=O)O)[C@@H](C)O)[C@@H](C)O` [nls-H, ProLysLysLysArgLysVal-βAlaLysThrProLysLysAlaLysLysProLysThrProLysLysAlaLysLysPro (COOH) (SEQ ID No.9)] gave a solubility (physchem; pH 2.1, water) of 10 mg/mL (≈ 3.37 mM).
“ATPAKKAAATPAKKAA [N, AlaThrProAlaLysLysAlaAlaAlaThrProAlaLysLysAlaAla (COOH) (SEQ ID No.:3)]” showed a solubility (physchem; water) of 100 mg/mL.
In the case of “KTPKKAKKPKTPKKAKKP [H, LysThrProLysLysAlaLysLysProLysThrProLysLysAlaLysLysPro (COOH) (SEQ ID No.:4)]”, the solubility (physchem; pH 2.1, water) is reported as 10 mg/mL.
